According to patent US20250186436A1 (4E Therapeutics, Inc., priority 2021, published 2025):
pIC50: −log10 of the molar value. Values joined by “and” are separate entries in the source; they are usually repeats but may differ in a detail not shown here. Equal values may be shown once. Read-outs that look alike come from different tables or passages of the source.

Columns and labels:
[1] = molecular target: T1, recombinant full-length human kinase MNK1 (Homo sapiens, UniProt Q9BUB5); experiment: MNK1 radiometric kinase activity assay; type: biochemical; settings: radiometric activity assay; read-out: MNK1
T1 construct: the recombinant full-length human kinase MNK1; made in house; host or cells: insect cells
T1 sequence (Q9BUB5 whole entry): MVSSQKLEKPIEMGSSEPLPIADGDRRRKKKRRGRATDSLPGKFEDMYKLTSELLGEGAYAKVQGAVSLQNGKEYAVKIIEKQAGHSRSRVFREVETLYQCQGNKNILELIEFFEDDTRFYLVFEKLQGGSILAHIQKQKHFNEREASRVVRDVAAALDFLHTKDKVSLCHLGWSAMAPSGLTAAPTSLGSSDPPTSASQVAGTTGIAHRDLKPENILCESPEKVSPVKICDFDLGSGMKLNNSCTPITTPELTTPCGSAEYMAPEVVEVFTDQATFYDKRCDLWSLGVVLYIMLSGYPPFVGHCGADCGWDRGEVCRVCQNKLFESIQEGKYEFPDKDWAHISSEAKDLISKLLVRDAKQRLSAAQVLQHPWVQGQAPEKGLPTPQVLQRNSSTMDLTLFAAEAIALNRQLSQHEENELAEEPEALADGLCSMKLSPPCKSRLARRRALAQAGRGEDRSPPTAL

[2] = PK study in CD-1 male mice with IV and PO dosing (Example 3); type: in vivo; settings: for AUC(0-t): AUClast; for concentration at 24 h: Clast; for MRT inf: MRTinf
Experimental: Example 3: PK study of 4ET-03-053 in CD-1 male mice with IV and PO dosing
In mice, following IV administration with 1.5 mg/kg, plasma concentrations declined in a multiphasic manner with an initial concentration (Co) of 708 ng/mL and a last measurable concentration (Clast) of 5.29 ng/mL at 24 h post dose.

[3] = Plasma and brain concentrations, brain to plasma ratio in male CD1 mice (Example 3); type: in vivo; settings: 2 h post dosing; for concentration at 2 h: male, CD1, mouse
[4] = PK study in male Sprague-Dawley rats dosed once per day for five days, PO 25 mg/kg, 0.5% HPMC (Example 8); type: in vivo; settings: 0.5% HPMC suspension
Experimental: Example 8. PK study of 4ET-03-053 in male Sprague-Dawley rats dosed once per day for five days (P0; 25 mg/kg; 0.5HPMC aqueous suspension)
Table 24 provides plasma and brain concentrations at 24 hr after the last dose of five daily PO doses of 4ET-03-053.

[5] = male, CD-1, mouse, in vivo, iv, 1.5 mg/kg
[6] = male, CD-1, mouse, in vivo, po, 10 mg/kg
[7] = day five of daily PO 25 mg/kg, individual animals, 25 mg/kg
[8] = day five of daily PO 25 mg/kg, mean (n = 3)
[9] = male, Sprague-Dawley, rat, in vivo, po, 25 mg/kg, day five of daily PO 25 mg/kg, individual animals

## Cc1cc(Nc2cc(N)ncn2)c(=O)n2c1C(=O)NC21CCC2(CC2)CC1 [4ET-03-053, 6″-((6-Aminopyrimidin-4-yl)amino)-8″-methyl-2″H-dispiro[cyclopropane-1,1′-cyclohexane-4′,3″-imidazo[1,5-a]pyridine]-1″,5″-dione]
[1]
  pIC50: 6.67
[2]; CD-1 male mice, 10 mg/kg PO, individual animals, 10 mg/kg
  F: 75.6%
[2]; [5]
  clinical observation after dosing: lying on side and immobile with heavy breathing for about 1 min
  AUC(0-t): 1300 ng·h/mL
  concentration at 24 h: 5.29 ng/mL
  MRT inf: 4.93 h
[2]; male, CD-1, mouse, in vivo, iv, 1.5 mg/kg, AUCinf
  AUC(0-inf): 1530 ng·h/mL
[2]; male, CD-1, mouse, in vivo, iv, 1.5 mg/kg, CLp
  clearance: 19.3 mL/min/kg
[2]; male, CD-1, mouse, in vivo, iv, 1.5 mg/kg, Vss
  Vd: 5.63 L/kg
[2]; male, CD-1, mouse, in vivo, iv, 1.5 mg/kg, t1/2
  half-life: 6.17 h
[2]; male, CD-1, mouse, in vivo, iv, 1.5 mg/kg, total systemic exposure (AUCinf)
  AUC(0-inf): 1320 ng·h/mL
[2]; [6]
  Tmax: 0.5 h
  bioavailability: 75%
  time to mean peak plasma concentration: ≤ 30 min
  AUC(0-t): 6420 ng·h/mL
  concentration at 24 h: 33.2 ng/mL
  MRT inf: 6.7 h
[2]; male, CD-1, mouse, in vivo, po, 10 mg/kg, AUCinf
  AUC(0-inf): 6670 ng·h/mL
[2]; male, CD-1, mouse, in vivo, po, 10 mg/kg, Cmax
  Cmax: 807 ng/mL
[2]; male, CD-1, mouse, in vivo, po, 10 mg/kg, t1/2
  half-life: 5.14 h
[2]; male, CD-1, mouse, in vivo, po, 10 mg/kg, total systemic exposure (AUCinf)
  AUC(0-inf): 6620 ng·h/mL
[2]; mice, slow IV injection at 3 mg/kg, first animal
  clinical observation after dosing: died immediately after a slow IV injection
[2]; mouse, in vivo, CD-1 male mice, 10 mg/kg PO, individual animals, read-out: t1/2 (converted)
  half-life: 5.11 h
[3]; individual animals (n = 3)
  Brain Tissue Homogenate Conc.: 5.89 ng/mL and 6.41 ng/mL
  Plasma Conc.: 584 ng/mL and 661 ng/mL
[3]; brain tissue homogenate, individual animals (n = 3), read-out: Brain Tissue Homogenate Conc.
  concentration at 2 h: 4.61 ng/mL
[3]; brain tissue homogenate, mean, read-out: Brain Tissue Homogenate Conc., Mean
  concentration at 2 h: 5.64 ng/mL
[3]; brain tissue, read-out: Brain Mean Tissue
  concentration at 2 h: 22.5 ng/g
[3]; plasma, individual animals (n = 3), read-out: Plasma Conc.
  concentration at 2 h: 488 ng/mL
[3]; plasma, mean, read-out: Plasma Conc., Mean
  concentration at 2 h: 578 ng/mL
[3]; mouse, brain/plasma, read-out: Mean Tissue/Plasma Conc. Ratio (brain to plasma ratio)
  Kp at 2 h: 0.039
[4]; after the last of five daily 25 mg/kg PO doses
  time to peak plasma concentration: ≤ 1 h
[4]; [7]
  AUCinf: 489224 ng·h/mL and 471587 ng·h/mL
  AUCinf/D: 16316 kg·h/kL and 19569 kg·h/kL and 18863 kg·h/kL
  AUClast: 403575 ng·h/mL and 371995 ng·h/mL
  Clast: 5340 ng/mL and 6120 ng/mL
  Cmax: 26800 ng/mL and 29900 ng/mL
  Cmax/D: 1184 kg/kL and 1072 kg/kL and 1196 kg/kL
  F: 31.7% and 38.0% and 36.6%
  MRTinf: 13.2 h and 14.8 h
  t1/2: 10.7 h and 9.67 h
[4]; [8]
  AUCinf/D: 18250 kg·h/kL
  Cmax/D: 1151 kg/kL
  F: 35.5%
[4]; male, Sprague-Dawley, rat, in vivo, po, 25 mg/kg, after the last of five daily 25 mg/kg PO doses, at 24 hr, read-out: last measurable concentration
  concentration at 24 h: 5890 ng/mL
[4]; male, Sprague-Dawley, rat, in vivo, po, 25 mg/kg, after the last of five daily 25 mg/kg PO doses, read-out: peak plasma concentration (Cmax)
  Cmax: 28800 ng/mL
[4]; male, Sprague-Dawley, rat, in vivo, po, 25 mg/kg, after the last of five daily 25 mg/kg PO doses, read-out: terminal half-life (t1/2) (converted)
  half-life: 10.5 h
[4]; male, Sprague-Dawley, rat, in vivo, po, 25 mg/kg, after the last of five daily 25 mg/kg PO doses, read-out: total systemic exposure (AUCinf)
  AUC(0-inf): 456000 ng·h/mL
[4]; [9]
  AUC(0-t): 324000 ng·h/mL
  MRT inf: 14.5 h
  Tmax: 1 h
